Test results as given in article PMC5374710, “Discovery of the first dual GSK3β inhibitor/Nrf2 inducer. A new multitarget therapeutic strategy for Alzheimer’s disease” (Scientific Reports, 2017).

Key:
Assay type in all cases: cell-based, rat
[1] = test system: iNOS; test: iNOS expression in LPS-stimulated glial cultures (western blot); settings: 30 μM, LPS 1 μg/mL
Method: (§1) TNFα is considered one of the most important pro-inflammatory cytokines. […] The production of TNFα induced by LPS was reduced by 33% at 10 μM and by 50% at 30 μM. […] To further confirm the anti-inflammatory potential of compound 5c we measured the expression of thre NOX2 enzyme, since this isoform has been widely described as being specific tomicroglial cells. As depicted in Fig. 6F, LPS (1 μg/mL) stimulation of primary glial cultures during 24 h increased the expression of NOX2 by 65.3% (p < 0.01) compared to basal conditions.
(§2) Figure 6 Nitrites (A), TNFα (B), iNOS (C) and NOX activity (E) blockade (D) and NOX2 production (F) by 5c in primary glial cultures stimulated with LPS (1 μg/mL), HO-1 expression induced by this compound after 24 h. […] NOX activity was measured after 4 h co-treatment with LPS and compound 5c. […]
(§3) After treatment, mixed glial cells were washed with cold PBS and lysed in 100 μl ice-cold lysis buffer (1% Nonident P-40, 10% glycerol, 137 mM NaCl, 20 mM Tris HCl pH 7.5, 1 μg/ml leupeptin, 1 mM phenylmethylsulfonyl fluoride, 20 mM NaF, 1 mM sodium pyrophosphate, and 1 mM Na3VO4). […] Peroxidase-conjugated secondary antibodies (1:10000) were used to detect proteins by enhanced chemiluminescence detected by Advance Western-blotting Detection Kit (GE Healthcare, Barcelona, Spain). […]

[2] = test system: TNFα; test: TNFα release induced by LPS in mixed glial cells (ELISA); settings: LPS 1 μg/mL
Method: as §1, §2
Tumor necrosis factor-alpha (TNFα) concentrations were measured by specific quantitative sandwich ELISA kits (Preprotech, R&D Systems-bioNova, Madrid, Spain) following manufacturer instructions. TNFα levels in supernatant samples, obtained after treatments with culture media (Basal), LPS or LPS co-incubated with increasing concentrations of compound 5c, were measured following manufacturer instructions. […] Light absorption was measured in a microplate reader (Labtech, Offenburg, Germany). […]

[3] = test system: NOX; test: NOX activity assay in LPS-stimulated glial cultures (lucigenin); settings: 10 to 60 μM, 4 h stimulation with LPS 1 μg/mL, p < 0.01
Method: as §1, §2
Cells were pre-incubated with increasing concentrations of the compound. […] Then, treatments were removed and NADPH oxidase activity was assessed by measuring O2^− production in the presence of the substrate, NADPH (100 μM) as lucigenin-enhanced chemiluminiscence (5 μM lucigenin). No enzymatic activity was detected in the absence of NADPH. Luminescence was recorded 29 times every 1.8 seconds for each well in a luminometer, and NADPH oxidase activity was expressed as relative light units (RLU)/min normalized to basal value. […]

[4] = test system: NOX2; test: NOX2 expression in LPS-stimulated primary glial cultures (western blot); settings: 30 μM, LPS 1 μg/mL 24 h (LPS alone 65.3%)
Method: as §1, §2, §3

COc1cccc(C2C(C#N)=C(N)Oc3n[nH]c(C)c32)c1 (centres unmarked) [Compound 5c, 6-Amino-4-(3-methoxyphenyl)-3-methyl-2,4-dihydropyrano[2,3-c]pyrazole-5-carbonitrile]
Reduction of iNOS expression [1]: almost completely | Reduction of TNFα production induced by LPS ([2]; 10 μM): 33% | Reduction of TNFα production induced by LPS ([2]; 30 μM): 50% | Reduction of NOX activity [3]: significantly reduce | NOX2 expression increase compared to basal conditions in presence of LPS [4]: 11.1%
